Experimental findings from patent publication US20260248881A1, “PHARMACEUTICAL COMPOSITION COMPRISING FOXM1 INHIBITOR AND IMMUNE CHECKPOINT INHIBITOR FOR PREVENTING OR TREATING CANCER” (National Cancer Center, priority 2022, published 2026) are described below.

Structures are written as SMILES.

In the assay the test system is FOXM1 and PD-L1. Description: Immunoblotting of FOXM1 and PD-L1 after FDI-6 or RCM1 treatment. The note with it: lung cancer cell line (PC9) and colorectal cancer cell line (SW480). Format: cell-based, human. In general terms: In western blotting, separated proteins are transferred to a membrane and probed.

Protocol: Human lung cancer cell lines (H1299, PC9), colorectal cancer cell lines (HCT116, SW480), and brain tumor cell lines (U118) were purchased from the American Type Culture Collection (Manassas, VA, USA). H1299, PC9, U118, and SW480 cells were cultured in Roswell Park Memorial Institute (RPMI) medium supplemented with 10% FBS and 1% penicillin/streptomycin, and HCT116 cells were cultured in McCoy's 5A medium supplemented with 10% FBS and 1% penicillin/streptomycin. Cells were maintained at 37° C. in a humidified incubator with 5% CO2.
After washing, appropriate secondary antibodies conjugated to horseradish peroxidase were bound to the membrane, and protein bands were detected using a chemiluminescence kit (Thermo Fisher Scientific, Carlsbad, CA, USA).

For the compound `Nc1c(C(=O)Nc2ccc(F)cc2)sc2nc(-c3cccs3)cc(C(F)(F)F)c12` [FDI-6], the “FOXM1 and PD-L1 expression” value is recorded as “significantly decreased”.
